pIC50: −log10 of the molar value.
Experiments:
[1] = system: ETBR; settings: competitive antagonist; ref [36]; cited from earlier work
[2] = system: ETAR; settings: competitive antagonist; ref [36]; cited from earlier work
[3] = system: ETBR-GFP; experiment: Ca2+ flux, COS-7, ETBR-GFP co-transfected with other GPCRs; type: cell-based; settings: mock+sitaxentan vs mock+vehicle (no ETAR expression)
[4] = system: Cys-P3-tagged GPCR; experiment: peptide-templated labeling of Cys-P3-tagged GPCRs in live HEK293 cells; type: cell-based; settings: n=3; for fluorescent labeling: 200 nM probe
[5] = system: Cys-P1-tagged GPCR; experiment: peptide-templated labeling of Cys-P1-tagged GPCRs in live HEK293 cells; type: cell-based; settings: n=3; for fluorescent labeling: Cys-P1-ETAR-GFP, 200 nM probe

In the case of `Cc1cc2c(cc1CC(=O)c1sccc1S(=O)(=O)Nc1onc(C)c1Cl)OCO2` [sitaxentan], the pIC50 [1] is listed as about 5.00, the pIC50 [2] is listed as about 9.00 and the “effect on ET-1 efficacy and potency at ETBR” value [3] is listed as “No differences in both ligand efficacy and potency”.

For “KIAQLKE KNAALKE KNQQLKE KIQALKY [TAMRA‐P2, 6‐carboxytetramethyl‐rhodamine (TAMRA)‐P2]”, the cross-reactivity labeling ([4]; Cys-P3-ETAR-GFP with non-complementary probe) was “no successful TAMRA labeling was detectable”, the fluorescent labeling [5] was “successfully labeled” and the “labeling with complementary probe” value ([5]; Cys-P1-ETBR-GFP) was “Rapid TAMRA staining within 5 min”.

In the case of “KIAQLKQ KIQALKQ ENQQLEE ENAALEY [TAMRA‐P4]”, the fluorescent labeling ([4]; Cys-P3-ETAR-GFP) was “successfully labeled”, the “labeling with complementary probe” value ([4]; Cys-P3-ETAR-GFP) was “Rapid TAMRA staining within 5 min” and the cross-reactivity labeling ([5]; Cys-P1-ETBR-GFP with non-complementary probe) was “no successful TAMRA labeling was detectable”.

With TAMRA‐MPAA‐GSGSG the fluorescent labeling ([4]; Cys-P3-ETAR-GFP) was “no labeling of GFP‐positive cells was detectable” and the fluorescent labeling [5] was “no labeling of GFP‐positive cells was detectable”.

From PMC9298254 (Chembiochem, 2021)
